The source of these data is patent US20030040531A1, “Remedies for reperfusion injury containing integrin alphanubeta 3 antagonist” (priority 2000, published 2003).

Experiment [1] concerns rat vascular smooth muscle cells. Description: adhesion of rat vascular smooth muscle cells to rat vitronectin. Type of experiment: cell-based. To be noted: read-out: concentration (IC50) necessary for inhibition of adhesion to vitronectin. How it is done: The adhesion of vascular smooth muscle cells to immobilized human vitronectin was measured in accordance with the method of Liaw et al. (L. Liaw et al., Circ. Res., 74, 214 (1994)). A Dulbecco's phosphate buffer (Dulbecco's PBS(−)) solution of human serum-derived vitronectin adjusted to a concentration of 4 μg/ml was first added to wells (50 μl/well) of a microplate (Maxisorp), and a reaction for immobilization was allowed to proceed at 4° C. overnight. After washing twice with 150 μl of Dulbecco's PBS (−), Dulbecco's PBS (−) containing 10 mg/ml of bovine serum albumin was added, followed by blocking at 37° C. for one hr. The microplate was then washed twice with 150 μl of Dulbecco's PBS (−) to prepare an assay plate.
Next, 50 μl of a Dulbecco's modified Eagle's basal medium containing 20 mg/ml of bovine serum albumin with a medicament added thereto was added to the wells of the human vitronectin-coated assay microplate, followed by pre-cultivation under 5% carbon dioxide at 37° C. for 10 min. Thereafter, 50 μl of the Dulbecco's modified Eagle's basal medium with human vascular smooth muscle cells suspended therein was added thereto, and the plate was thoroughly stirred. A reaction was allowed to proceed under 5% carbon dioxide at 37° C. for 90 min. The reaction solution containing non-adherent cells was then removed, followed by washing three times with Dulbecco's PBS (−). For the adhered cells, 100 μl of Dulbecco's PBS (−) containing 4% paraformaldehyde was added, and immobilization was allowed to proceed at room temperature for 10 min. Next, 100 μl of a Dulbecco's PBS (−) containing 0.5% Toluidine Blue and 4% paraformaldehyde was added, and staining was allowed to proceed at room temperature for 5 min, followed by thorough washing with distilled water. The inside of the wells was then air-dried, and 1% aqueous sodium dodecylsulfate solution was then added to perform cytolysis. The absorbance of the microplate thus obtained was measured at 595 nm. […] The inhibition was calculated by the following equation. IC50 was determined from a primary regression line of the logarithm of each concentration of the test compound and the logarithm of (100−inhibition)/inhibition. [formula]
Rat vascular smooth muscle cells were cultivated in a medium composed of a mixture of equal amounts of 15% fetal calf serum-containing 199 medium and RPMI 1640 medium. Separately, hamster and dog vascular smooth muscle cells were cultivated in a 10% fetal calf serum-containing Dulbecco's modified Eagle's basal medium. These cultivated cells were then suspended in a Dulbecco's modified Eagle's basal medium to concentrations of 3×10^5 cells/ml (rat), 3×10^5 cells/ml (hamster), and 4×10^5 cells /ml (dog), respectively. Rat vitronectin was used in the adhesion system of rats and hamsters, while bovine vitronectin was used in the adhesion system of dogs.

The next experiment deals with integrin αvβ3 (Homo sapiens, UniProt P05106+P06756). Put plainly: integrin αvβ3 binding assay (Pharmacological Example 1 in WO 99/38849). The source says:
Whether or not a compound has integrin αvβ3 antagonistic activity may be determined by assaying the antagonistic action by integrin αvβ3 binding assay as described, for example, in Pharmacological Test Example 1 in WO 99/38849.

Chain of integrin αvβ3 (P06756 31-1048): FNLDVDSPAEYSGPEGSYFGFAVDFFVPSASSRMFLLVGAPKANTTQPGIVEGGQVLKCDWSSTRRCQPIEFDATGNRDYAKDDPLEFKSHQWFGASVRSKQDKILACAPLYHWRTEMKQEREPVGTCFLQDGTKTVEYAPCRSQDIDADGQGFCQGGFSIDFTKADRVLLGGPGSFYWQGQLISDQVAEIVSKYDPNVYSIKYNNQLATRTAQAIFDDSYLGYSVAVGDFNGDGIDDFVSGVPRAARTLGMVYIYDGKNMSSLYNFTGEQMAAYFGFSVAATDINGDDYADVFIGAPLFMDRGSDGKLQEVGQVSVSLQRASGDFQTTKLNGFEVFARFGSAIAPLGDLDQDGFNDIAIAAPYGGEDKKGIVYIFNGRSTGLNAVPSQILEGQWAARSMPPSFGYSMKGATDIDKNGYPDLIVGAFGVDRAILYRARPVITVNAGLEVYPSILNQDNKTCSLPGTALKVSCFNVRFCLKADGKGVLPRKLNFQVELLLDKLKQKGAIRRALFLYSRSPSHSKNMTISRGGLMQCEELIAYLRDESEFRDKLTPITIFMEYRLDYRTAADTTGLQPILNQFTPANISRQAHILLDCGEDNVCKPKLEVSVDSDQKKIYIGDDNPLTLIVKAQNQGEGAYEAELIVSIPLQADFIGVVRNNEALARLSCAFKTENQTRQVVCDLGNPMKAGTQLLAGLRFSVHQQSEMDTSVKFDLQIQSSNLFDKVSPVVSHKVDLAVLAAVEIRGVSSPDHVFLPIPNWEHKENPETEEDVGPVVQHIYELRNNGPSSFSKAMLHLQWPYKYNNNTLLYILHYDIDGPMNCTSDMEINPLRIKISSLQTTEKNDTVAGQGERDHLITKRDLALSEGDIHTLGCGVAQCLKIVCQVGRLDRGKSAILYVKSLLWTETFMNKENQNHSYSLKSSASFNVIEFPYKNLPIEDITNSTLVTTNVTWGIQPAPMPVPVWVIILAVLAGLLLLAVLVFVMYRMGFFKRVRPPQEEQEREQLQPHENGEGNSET
Chain of integrin αvβ3 (P05106 27-788): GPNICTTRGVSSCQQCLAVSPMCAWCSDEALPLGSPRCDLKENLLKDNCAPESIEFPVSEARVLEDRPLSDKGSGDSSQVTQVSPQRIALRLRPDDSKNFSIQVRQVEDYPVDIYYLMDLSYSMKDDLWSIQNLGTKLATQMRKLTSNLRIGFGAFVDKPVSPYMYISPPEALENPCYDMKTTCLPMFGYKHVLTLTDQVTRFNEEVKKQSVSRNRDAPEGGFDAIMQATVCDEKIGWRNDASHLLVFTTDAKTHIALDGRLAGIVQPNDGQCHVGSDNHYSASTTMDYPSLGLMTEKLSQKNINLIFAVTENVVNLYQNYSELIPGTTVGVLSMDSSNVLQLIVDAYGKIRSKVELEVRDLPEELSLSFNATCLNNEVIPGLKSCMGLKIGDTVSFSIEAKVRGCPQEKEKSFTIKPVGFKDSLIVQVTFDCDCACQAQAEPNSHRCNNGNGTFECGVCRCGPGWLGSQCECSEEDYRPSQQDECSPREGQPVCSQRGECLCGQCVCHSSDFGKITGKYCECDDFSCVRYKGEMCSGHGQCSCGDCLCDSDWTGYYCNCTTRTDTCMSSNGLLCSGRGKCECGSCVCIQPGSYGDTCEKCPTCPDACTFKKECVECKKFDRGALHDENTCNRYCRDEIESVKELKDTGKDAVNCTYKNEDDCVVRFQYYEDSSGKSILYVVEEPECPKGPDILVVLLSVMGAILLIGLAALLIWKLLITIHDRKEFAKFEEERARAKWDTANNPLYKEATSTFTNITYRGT

For `O=C(NCC(NS(=O)(=O)c1ccccc1)C(=O)O)c1ccc(N2CCC(NC3=NCCCN3)CC2)c(F)c1` (stereo in doubt) [formula (IV), (2S)-Benzenesulfonylamino-3-[3-fluoro-4-{4-(1,4,5,6-tetrahydropyrimidin-2-ylamino)-piperidin-1-yl}benzoylamino]propionic Acid], the IC50 was found to be 230 nM in experiment [1] and 0.2 nM on integrin αvβ3.
